Results published in BigSolDB 2.1.

O=C1CCCC(=O)O1
Conditions | solubility (mole fraction)
in acetic acid, 279.65 K | 0.0783
in acetic acid, 282.25 K | 0.0967
in acetic acid, 284.55 K | 0.119
in acetic acid, 287.05 K | 0.152
in acetic acid, 289.55 K | 0.183
in acetic acid, 291.95 K | 0.223
in acetic acid, 294.25 K | 0.27
in acetic acid, 296.65 K | 0.323
in acetic acid, 299.15 K | 0.376
in acetic acid, 302.15 K | 0.436
in acetic acid, 304.05 K | 0.502
in acetic acid, 306.25 K | 0.557
in acetyl acetate, 278.45 K | 0.153
in acetyl acetate, 282.45 K | 0.205
in acetyl acetate, 283.85 K | 0.231
in acetyl acetate, 285.45 K | 0.259
in acetyl acetate, 287.65 K | 0.299
in acetyl acetate, 290.55 K | 0.342
in acetyl acetate, 293.05 K | 0.388
in acetyl acetate, 296.95 K | 0.437
in acetyl acetate, 300.25 K | 0.502
in acetyl acetate, 304.05 K | 0.562
in tetrachloromethane, 282.25 K | 0.00064
in tetrachloromethane, 285.45 K | 0.00073
in tetrachloromethane, 288.05 K | 0.00097
in tetrachloromethane, 291.15 K | 0.00141
in tetrachloromethane, 293.95 K | 0.00182
in tetrachloromethane, 295.95 K | 0.00225
in tetrachloromethane, 300.25 K | 0.00268
in tetrachloromethane, 303.25 K | 0.00321
in tetrachloromethane, 306.25 K | 0.0039
in tetrachloromethane, 309.85 K | 0.00487
in tetrachloromethane, 312.95 K | 0.00544
in tetrachloromethane, 315.55 K | 0.00586
in tetrachloromethane, 318.25 K | 0.00619
in tetrachloromethane, 320.45 K | 0.00639
